Experimental data as given in patent US9278922B2 (ABBVIE INC., priority 2009, dated 2016).

Each compound was assayed on HCV 1b-Con-1 replicon (assay: HCV 1b-Con-1 replicon assay (luciferase reporter gene, HuH-7 cells)). Details: Hepatitis C virus, Huh-7, luciferase reporter gene activity in the replicon, in the presence of 5% FBS.
Format: cell-based, Hepatitis C virus (HCV) genotype 1b-Con1
`CC[C@H](NC(=O)OC)C(=O)N1CCC[C@H]1C(=O)Nc1ccc(CN(Cc2ccc(NC(=O)[C@@H]3CCCN3C(=O)[C@@H](c3ccccc3)N3CCCCC3)cc2)c2ccc(F)cc2)cc1` [Example 115, methyl [(1S)-1-({(2S)-2-[(4-{[(4-fluorophenyl){4-[({(2S)-1-[(2R)-2-phenyl-2-piperidin-1-ylacetyl]pyrrolidin-2-yl}carbonyl)amino]benzyl}amino]methyl}phenyl)carbamoyl]pyrrolidin-1-yl}carbonyl)propyl]carbamate] showed an EC50 of less than 1 nM.
`CC(C)(C)[C@H](Nc1nccs1)C(=O)N1CCC[C@H]1C(=O)Nc1ccc(CN(Cc2ccc(NC(=O)[C@@H]3CCCN3C(=O)[C@@H](Nc3nccs3)C(C)(C)C)cc2)c2ccccc2)cc1` [Example 121, (2S,2′S)-N,N′-[(phenylimino)bis(methanediylbenzene-4,1-diyl)]bis{1-[(2S)-3,3-dimethyl-2-(1,3-thiazol-2-ylamino)butanoyl]pyrrolidine-2-carboxamide}] gave an EC50 of less than 1 nM.
`COC(=O)N[C@H](C(=O)N1CCC[C@H]1C(=O)Nc1ccc(CN(Cc2ccc(NC(=O)[C@@H]3CCCN3C(=O)[C@H](NC(=O)OC)c3ccccc3)cc2)c2ccccc2)cc1)C(C)(C)C` [Example 69] was tested, and the EC50 was less than 1 nM.
`CCC(CC)[C@H](NC(=O)OC)C(=O)N1CCC[C@H]1C(=O)Nc1ccc(CN(Cc2ccc(NC(=O)[C@@H]3CCCN3C(=O)[C@@H](NC(=O)OC)C(CC)CC)cc2)c2ccc(F)cc2)cc1` [Example 135] was tested, and the EC50 was 1 to 10 nM.
`COC(=O)N[C@H](C(=O)N1CCC[C@H]1C(=O)Nc1ccc(CN(Cc2ccc(NC(=O)[C@@H]3CCCN3C(=O)[C@@H](NC(=O)OC)C(C)(C)OC)cc2)c2ccccc2)cc1)C(C)(C)OC` [Example 52, dimethyl [(phenylimino)bis{methanediylbenzene-4,1-diylcarbamoyl(2S)pyrrolidine-2,1-diyl[(2S)-3-methoxy-3-methyl-1-oxobutane-1,2-diyl]}]biscarbamate] showed an EC50 of 1 to 10 nM.
With `COC(=O)N[C@H](C(=O)N1CCC[C@H]1C(=O)Nc1ccc(CN(Cc2ccc(NC(=O)[C@@H]3CCCN3C(=O)[C@@H](NC(=O)OC)[C@@H](C)O)cc2)c2ccccc2)cc1)[C@@H](C)O` [Example 25, dimethyl[(phenylimino)bis{methanediylbenzene-4,1-diylcarbamoyl(2S)pyrrolidine-2,1-diyl[(2S,3R)-3-hydroxy-1-oxobutane-1,2-diyl]}]biscarbamate] the EC50 was 1 to 10 nM.
`COC(=O)N[C@H](C(=O)N1CSC(C)(C)[C@H]1C(=O)Nc1ccc(CN(Cc2ccc(NC(=O)[C@H]3N(C(=O)[C@@H](NC(=O)OC)C(C)(C)C)CSC3(C)C)cc2)c2ccccc2)cc1)C(C)(C)C` [Example 93, methyl [(1S)-1-{[(4R)-4-{[4-({[4-({[(4R)-3-{(2S)-2-[(methoxycarbonyl)amino]-3,3-dimethylbutanoyl}-5,5-dimethyl-1,3-thiazolidin-4-yl]carbonyl}amino)benzyl](phenyl)amino}methyl)phenyl]carbamoyl}-5,5-dimethyl-1,3-thiazolidin-3-yl]carbonyl}-2,2-dimethylpropyl]carbamate] was tested, and the EC50 was 1 to 10 nM.
`O=C(Nc1ccc(CN(Cc2ccc(NC(=O)[C@@H]3CCCN3C(=O)C(c3ccccc3)C3(O)CCCC3)cc2)c2ccc(F)cc2)cc1)[C@@H]1CCCN1C(=O)C(c1ccccc1)C1(O)CCCC1` (stereo partly drawn) [Example 106, (2S ,2′S)-N,N′-{[(4-fluorophenyl)imino]bis(methanediylbenzene-4,1-diyl)}bis{1-[(1-hydroxycyclopentyl)(phenyl)acetyl]pyrrolidine-2-carboxamide}] showed an EC50 of less than 1 nM.
With `COC(=O)N[C@@H](CCc1ccccc1)C(=O)N1CCC[C@H]1C(=O)Nc1ccc(CN(Cc2ccc(NC(=O)[C@@H]3CCCN3C(=O)[C@H](CCc3ccccc3)NC(=O)OC)cc2)c2ccccc2)cc1` [Example 91, dimethyl[(phenylimino)bis{methanediylbenzene-4,1-diylcarbamoyl(2S)pyrrolidine-2,1-diyl[(2S)-1-oxo-4-phenylbutane-1,2-diyl]}]biscarbamate] the EC50 was 1 to 10 nM.
For `O=C(Nc1ccc(CN(Cc2ccc(NC(=O)[C@@H]3CCCN3C(=O)C(c3ccccc3)N3CC[C@@H](F)C3)cc2)c2ccc(F)cc2)cc1)[C@@H]1CCCN1C(=O)C(c1ccccc1)N1CC[C@@H](F)C1` (stereo partly drawn) [Example 116, (2S,2′S)-N,N′-{[(4-fluorophenyl)imino]bis(methanediylbenzene-4,1-diyl)}bis(1-{[(3R)-3-fluoropyrrolidin-1-yl](phenyl)acetyl}pyrrolidine-2-carboxamide)], the EC50 was less than 1 nM.
Work on `CCN(C(C)C)[C@@H](C(=O)N1CCC[C@H]1C(=O)Nc1ccc(CN(Cc2ccc(NC(=O)[C@@H]3CCCN3C(=O)[C@@H](c3ccccc3)N(CC)C(C)C)cc2)c2ccc(F)cc2)cc1)c1ccccc1` [Example 132, (2S,2′S)-N,N′-{[(4-fluorophenyl)imino]bis(methanediylbenzene-4,1-diyl)}bis(1-{(2R)-2-[ethyl(1-methylethyl)amino]-2-phenylacetyl}pyrrolidine-2-carboxamide)] yielded an EC50 of less than 1 nM.
Compound `COC(=O)N[C@H](C(=O)N1CCC[C@H]1C(=O)Nc1ccc(CN(Cc2ccc(NC(=O)[C@@H]3CCCN3C(=O)[C@H](NC(=O)[C@@H]3CCCO3)c3ccccc3)cc2)c2ccccc2)cc1)C(C)(C)C` [Example 87, N-(methoxycarbonyl)-3-methyl-L-valyl-N-[4-({phenyl[4-({1-[(2R)-2-phenyl-2-{[(2S)-tetrahydrofuran-2-ylcarbonyl]amino}acetyl]-L-prolyl}amino)benzyl]amino}methyl)phenyl]-L-prolinamide] has an EC50 of less than 1 nM.
In the case of `CC[C@H](NC(=O)OC)C(=O)N1CCC[C@H]1C(=O)Nc1ccc(CN(Cc2ccc(NC(=O)[C@@H]3CCCN3C(=O)[C@H](CC)NC(=O)OC)cc2)c2ccccc2)cc1` [Example 38, dimethyl [(phenylimino)bis{methanediylbenzene-4,1-diylcarbamoyl(2S)pyrrolidine-2,1-diyl[(2S)-1-oxobutane-1,2-diyl]}]biscarbamate], the EC50 is reported as 1 to 10 nM.
`CC(C)[C@@H](C(=O)N1CCC[C@H]1C(=O)Nc1ccc(CN(Cc2ccc(NC(=O)[C@@H]3CCCN3C(=O)[C@H](C(C)C)N3CCCC3=O)cc2)c2ccccc2)cc1)N1CCCC1=O` [Example 42, (2S,2′S)-N,N′-[(phenylimino)bis(methanediylbenzene-4,1-diyl)]bis {1-[(2S)-3-methyl-2-(2-oxopyrrolidin-1-yl)butanoyl]pyrrolidine-2-carboxamide}] was tested, and the EC50 was less than 1 nM.
`COC(=O)N[C@@H](Cc1ccccc1)C(=O)N1CCC[C@H]1C(=O)Nc1ccc(CN(Cc2ccc(NC(=O)[C@@H]3CCCN3C(=O)[C@H](Cc3ccccc3)NC(=O)OC)cc2)c2ccccc2)cc1` [Example 61, dimethyl [(phenylimino)bis{methanediylbenzene-4,1-diylcarbamoyl(2S)pyrrolidine-2,1-diyl[(2S)-1-oxo-3-phenylpropane-1,2-diyl]}]biscarbamate] showed an EC50 of 1 to 10 nM.
`COCC(=O)N[C@H](C(=O)N1CCC[C@H]1C(=O)Nc1ccc(CN(Cc2ccc(NC(=O)[C@@H]3CCCN3C(=O)[C@@H](NC(=O)COC)C(C)(C)C)cc2)c2ccccc2)cc1)C(C)(C)C` [Example 40, (2S,2′S)-N,N′-[(phenylimino)bis(methanediylbenzene-4,1-diyl)]bis(1-{(2S)-2-[(methoxyacetyl)amino]-3,3-dimethylbutanoyl}pyrrolidine-2-carboxamide)] was tested, and the EC50 was 10 to 100 nM.
`COC(=O)N[C@H](C(=O)N1CCC[C@H]1C(=O)Nc1ccc(CN(Cc2ccc(NC(=O)[C@@H]3CCCN3C(=O)[C@@H](NC(=O)OC)[C@H](C)O)cc2)c2ccccc2)cc1)[C@H](C)O` [Example 49, dimethyl [(phenylimino)bis{methanediylbenzene-4,1-diylcarbamoyl(2S)pyrrolidine-2,1-diyl[(2S,3S)-3-hydroxy-1-oxobutane-1,2-diyl]}]biscarbamate] was tested, and the EC50 was 1 to 10 nM.
Compound `O=C(Nc1ccc(CN(Cc2ccc(NC(=O)[C@@H]3CCCN3C(=O)C(c3ccccc3)N3CCC(F)(F)CC3)cc2)c2ccc(F)cc2)cc1)[C@@H]1CCCN1C(=O)C(c1ccccc1)N1CCC(F)(F)CC1` (single isomer, unassigned) [Example 139] has an EC50 of 1 to 10 nM.
In the case of `COC(=O)N[C@H](C(=O)N1CCC[C@H]1c1nc2cc(CN(Cc3ccc4[nH]c([C@@H]5CCCN5C(=O)[C@@H](NC(=O)OC)C(C)C)nc4c3)c3ccccc3)ccc2[nH]1)C(C)C` [Example 17, Dimethyl (2S,2′S)-1,1′-((2S,2′S)-2,2′-(5,5′-(phenylazanediyl)bis(methylene)bis(1H-benzo[d]imidazole-5,2-diyl))bis(pyrrolidine-2,1-diyl))bis(3-methyl-1-oxobutane-2,1-diyl)dicarbamate], the EC50 is reported as less than 1 nM.
Work on `COC(=O)N[C@@H](C(=O)N1CCC[C@H]1C(=O)Nc1ccc(CN(Cc2ccc(NC(=O)[C@@H]3CCCN3C(=O)[C@H](NC(=O)OC)c3ccccc3)cc2)c2ccccc2)cc1)c1ccccc1` [Example 3] yielded an EC50 of less than 1 nM.
`COC(=O)N[C@H](C(=O)N1CCC[C@H]1c1nc2cc(CN(Cc3ccc4oc([C@@H]5CCCN5C(=O)[C@@H](NC(=O)OC)C(C)C)nc4c3)c3ccccc3)ccc2o1)C(C)C` [Example 148, methyl [(1S)-1-{[(2S)-2-(5-{[({2-[(2S)-1-{(2S)-2-[(methoxycarbonyl)amino]-3-methylbutanoyl}pyrrolidin-2-yl]-1,3-benzoxazol-5-yl}methyl)(phenyl)amino]methyl}-1,3-benzoxazol-2-yl)pyrrolidin-1-yl]carbonyl}-2-methylpropyl]carbamate] gave an EC50 of 100 to 250 nM.
Compound `COC(=O)N[C@H](C(=O)N1CC[C@H](C)[C@H]1C(=O)Nc1ccc(CN(Cc2ccc(NC(=O)[C@@H]3[C@@H](C)CCN3C(=O)[C@@H](NC(=O)OC)C(C)(C)C)cc2)c2ccc(F)cc2)cc1)C(C)(C)C` [Example 145] has an EC50 of less than 1 nM.
`O=C(Nc1ccc(CN(Cc2ccc(NC(=O)[C@@H]3CCCN3C(=O)[C@@H](c3ccccc3)N3CCCCC3)cc2)c2ccc(F)c(F)c2)cc1)[C@@H]1CCCN1C(=O)[C@@H](c1ccccc1)N1CCCCC1` [Example 137, (2S,2′S)-N,N′-{[(3,4-difluorophenyl)imino]bis(methanediylbenzene-4,1-diyl)}bis{1-[(2R)-2-phenyl-2-piperidin-1-ylacetyl]pyrrolidine-2-carboxamide}] was tested, and the EC50 was less than 1 nM.
